Laboratory results reported in article PMC10004487, “Flavonoids from the Roots of Sophora flavescens and Their Potential Anti-Inflammatory and Antiproliferative Activities” (Molecules, 2023).
Where a name gives a salt, the structure may show the parent alone. Read-outs that look alike come from different tables or passages of the source.

What was measured:
HepG2 cells = experiment: Antiproliferative MTT assay on HepG2 cell lines; format: cell-based, Human; conditions: read-out: IC50 (50% inhibitory concentration), antiproliferative effect, 24 and 48 h of incubation, mean ± SD of 3 tests
Experimental: Inhibitory rate (%) = [(O.DDrug − O.DBlank)/(O.DControl − O.DBlank)] ×100%. The IC50 values were calculated with probit analysis using software SPSS version 21.0.
(§1) Murine macrophages (RAW 264.7) were cultured in Dulbecco’s modified Eagle’s medium (DMEM) supplemented with the addition of 10% fetal bovine serum (FBS) and 1% streptomycin (10,000 μg/mL)-penicillin (10,000 U/mL) at 37 °C in a humidified incubator under 5% CO2. HepG2 cells were cultured at 37 °C under 5% CO2. The optimal fermentation culture medium comprised DMEM, 1% mixed penicillin (10,000 U mL^−1), 1% HEPES (BioFroxx, Hesse, Einhausen), and 10% fetal bovine serum (FBS), as well as streptomycin (SM) (10,000 μg/mL^−1) fluid. In all experiments, cells were left to acclimate for 24 h before any treatments.
Briefly, the cells were incubated in 96-well microplates (1 × 10^5 per well) and allowed to adhere for 24 h before drug administration. Then, the cell lines were treated with test compounds 1–36 at five concentrations (3.12, 6.25, 12.5, 25, and 50 μM). At 24 and 48 h of incubation, cells were treated with MTT (200 µL, 5.0 mg/mL) and dissolved in the culture medium, for 1 h under at 37 °C under a 5% CO2 humidified atmosphere. The MTT was then removed carefully and resolved with DMSO (150 μL/well). Optical density was recorded using a Thermo Fisher Scientific microplate reader at 490 nm. Cisplatin (CP) and medium were used as positive and negative controls, respectively.

[1] = system: LPS-induced NO production in RAW 264.7 macrophages; experiment: Inhibition of LPS-induced NO production in macrophages (Griess reagent); format: cell-based, Murine; conditions: Mus musculus, RAW264.7, read-out: IC50 (50% inhibitory concentration), NO production inhibition
Experimental: NO is one of the immune effectors used by macrophages to defend our bodies against intracellular pathogens. […] NO production inhibition (%) = [(O.DLPS − O.DDrug)/(O.DLPS − O.DBlank)] × 100%. The determination of IC50 was calculated using probit analysis in SPSS version 21.0.
as §1
Activated macrophage cells could express inducible nitric oxide synthase (iNOS), catalyzing the production of NO from L-arginine. […] Afterward, costimulation for 24 h at 37 °C was carried out in an incubator under 5% CO2. Then, Griess reagents I and II (100 μL) were mixed with cell culture medium (70 μL). Prior to measuring the optical density, plates were incubated at room temperature for 10 min, and the absorbance at 540 nm was measured using a Thermo Fisher Scientific microplate reader. N(G)-monomethyl-L-arginine, monoacetate salt (L-NMMA), and the medium were used as positive and negative controls, respectively.

[2] = Cytotoxicity on RAW 264.7 macrophages (MTT cell viability); format: cell-based, Murine; conditions: mouse
Experimental: The potential cytotoxicity of compounds on RAW 264.7 macrophages cells was determined before executing further studies. Macrophage cells were treated with compounds, and a mitochondria colorimetric (MTT) assay was used to test cell survival.
as §1
To measure cell viability, an MTT assay was performed. […] After washing twice with a PBS buffer, 20 μL of the MTT solution was added to each well, and incubation continued for 4 h. Optical density (O.D) was measured at 490 nm by a microplate reader (Thermo Fisher Scientific, Waltham, MA, USA). The relative cell viability was calculated in contrast to the normal control group.

[3] = RAW 264.7 pretreated with compound 1 h, then LPS 1 μg/mL for 24 h, Griess, mean ± SD of 3 tests

IC50 [1, 3] [µM]	IC50 (HepG2 cells; Homo sapiens) [µM]	Compound	CC50 [2] [µM]	also measured
9.3 ± 0.7		CC(C)=CCc1c(O)c(CC=C(C)C)c2c(c1O)C(=O)C[C@@H](c1ccc(O)cc1O)O2 [Compound 15, kushenol E]	18.8 ± 0.3	
	37.6 ± 0.7	CC(C)=CCc1c(O)cc(O)c2c1O[C@H](c1ccc(O)cc1O)CC2=O [Compound 5, leachianone G]		
	26.4 ± 0.3	COc1ccc(-c2oc3c(CC=C(C)C)c(O)cc(O)c3c(=O)c2O)cc1O [Compound 21, 8-(3,3-dimethylallyl)-tamarixetin]		

Further lines, the compound ahead of its results:

Compound	IC50 [1, 3] [µM]	IC50 (HepG2 cells; Homo sapiens) [µM]	CC50 [2] [µM]	also measured
xanthogalenol [Compound 34]				IC50 (HepG2 cells): 48.6 ± 0.8 µM
C=C(C)[C@H](CC=C(C)C)Cc1c(O)cc(OC)c2c1O[C@H](c1ccc(O)cc1O)CC2=O [Compound 13, kurarinone]	14.4 ± 0.4		33.8 ± 1	
N.N.[Cl][Pt][Cl] [Cisplatin, reference compound]				IC50 (HepG2 cells): 24.5 ± 0.8 µM
C=C(C)C(CC=C(C)C)Cc1c(O)c(CC=C(C)C)c(O)c2c1O[C@H](c1ccc(O)cc1O)CC2=O (stereo partly shown) [Compound 16, kushenol B]		30.8 ± 1.1		
CC(C)=CCc1c(O)cc(O)c2c(=O)c(O)c(-c3ccc(O)cc3)oc12 [Compound 19, noranhyoicaritin]	12.4 ± 0.9	41.4 ± 0.6	> 50	
[H]/N=C(/NC)NCCC[C@H](N)C(=O)O [L-NMMA, N(G)-monomethyl-L-arginine, monoacetate salt, reference compound]				IC50 [1]: 21.8 ± 0.9 µM; CC50 ([2]; RAW 264.7 macrophages, MTT, compound 1 h then LPS 1 μg/mL 24 h, mean ± SD of 3 tests): > 50 µM
C=C(C)[C@H](CC=C(C)C)Cc1c(O)cc(OC)c2c1O[C@H](c1ccc(O)cc1O)[C@@H](O)C2=O [Compound 29, kushenol I]	7.2 ± 0.6		20.6 ± 1.1	
CC(C)=CCc1c(O)cc(O)c2c1O[C@H](c1ccc(O)cc1)CC2=O [Compound 1, sophorafiavanone B]		34.9 ± 0.3		
COc1cc(O)c(CC=C(C)C)c2c1C(=O)CC(c1ccc(O)cc1)O2 (stereo not shown) [Compound 2, isoxanthohumol]	8.4 ± 0.7		> 50	
C=C(C)C(CC=C(C)C)Cc1c(O)cc(O)c2c(=O)c(O)c(-c3ccc(O)cc3)oc12 (stereo not shown) [Compound 22, 8-lavandulylkaempferol]	5.7 ± 0.4	0.46 ± 0.1	13.8 ± 0.6	
